Patent publication US8415342B2, “Besifloxacin ophthalmic composition for the treatment or control of infection” (Bausch & Lomb Incorporated, priority 2008, dated 2013)

Experiments:
Assay type in all cases: cell-based
[1] = system: baseline pathogens of bacterial conjunctivitis patients; assay: MIC of baseline clinical trial isolates, Studies 373, 433, 434 (all species)
CDC coryneform group G = assay: MIC of clinical trial isolates, Studies 373, 433, 434; conditions: N 29
Experimental: (§1) PFGE testing was performed per standard procedures.
(§2) The antibacterial susceptibility profile of each Visit 1 bacterial isolate was determined for besifloxacin and other antimicrobials.

H. influenzae = assay: as above; conditions: Haemophilus influenzae, all phenotypes, N 344
Experimental: as §1, §2

S. mitis group = assay: as above; conditions: Streptococcus mitis group, N 45
Experimental: as §1, §2

S. pneumoniae = assay: as above; conditions: Streptococcus pneumoniae, all phenotypes, N 302
Experimental: as §1, §2

Streptococcus oralis = assay: as above; conditions: N 18
Experimental: as §1, §2

S. aureus = assay: as above; conditions: Staphylococcus aureus, all phenotypes, N 190
S. epidermidis = assay: as above; conditions: Staphylococcus epidermidis, all phenotypes, N 111
[2] = system: Corynebacterium pseudodiphtheriticum; assay: as above; conditions: N 8
Corynebacterium striatum = assay: as above; conditions: N 8
Staphylococcus hominis = assay: as above; conditions: N 9
[3] = system: Staphylococcus lugdunensis; assay: as above; conditions: N 8
Streptococcus mitis = assay: as above; conditions: Streptococcus mitis (listed separately from S. mitis group), N 20
Experimental: PFGE testing was performed per standard procedures. […] Analysis Populations

Streptococcus salivarius = assay: as above; conditions: N 9

COc1c(N2CCNC(C)C2)c(F)cc2c(=O)c(C(=O)O)cn(C3CC3)c12 (centres unmarked) [GATI]
MIC50 ([1]; All organisms, N 1324): 0.125 µg/mL | MIC90 ([1]; All organisms, N 1324): 0.5 µg/mL | MIC50 ([1]; Gram-negative, N 438): 0.015 µg/mL | MIC90 ([1]; Gram-negative, N 438): 0.25 µg/mL | MIC Range ([1]; Gram-negative, N 438): ≦0.004-8 μg/mL | MIC50 ([1]; Gram-positive, N 886): 0.25 µg/mL | MIC90 ([1]; Gram-positive, N 886): 1 µg/mL | MIC50 (CDC coryneform group G): 0.06 µg/mL | MIC90 (CDC coryneform group G): 0.5 µg/mL | MIC Range (CDC coryneform group G): 0.03 to 8 µg/mL | MIC50 (H. influenzae): 0.015 µg/mL | MIC90 (H. influenzae): 0.03 µg/mL | MIC Range (H. influenzae): ≦0.004-0.5 μg/mL | MIC50 (S. mitis group): 0.5 µg/mL | MIC90 (S. mitis group): 0.5 µg/mL | MIC Range (S. mitis group): 0.06 to 2 µg/mL | MIC50 (S. pneumoniae): 0.25 µg/mL | MIC90 (S. pneumoniae): 0.5 µg/mL | MIC Range (S. pneumoniae): 0.125 to 1 µg/mL | MIC50 (Streptococcus oralis): 0.5 µg/mL | MIC90 (Streptococcus oralis): 1 µg/mL | MIC Range (Streptococcus oralis): 0.03 to 1 µg/mL | MIC50 (S. aureus): 0.125 µg/mL | MIC90 (S. aureus): 4 µg/mL | MIC50 (S. epidermidis): 0.125 µg/mL | MIC90 (S. epidermidis): 2 µg/mL | MIC50 [2]: 0.5 µg/mL | MIC Range [2]: 0.06 to 0.5 µg/mL | MIC50 (Corynebacterium striatum): 0.03 µg/mL | MIC Range (Corynebacterium striatum): 0.015 to 2 µg/mL | MIC50 (Staphylococcus hominis): 0.125 µg/mL | MIC Range (Staphylococcus hominis): 0.06 to 2 µg/mL | MIC50 [3]: 0.25 µg/mL | MIC Range [3]: 0.25 to 2 µg/mL | MIC50 (Streptococcus mitis): 0.5 µg/mL | MIC90 (Streptococcus mitis): 1 µg/mL | MIC Range (Streptococcus mitis): 0.25 to 1 µg/mL | MIC50 (Streptococcus salivarius): 0.5 µg/mL | MIC Range (Streptococcus salivarius): 0.5 to 2 µg/mL

C[C@H]1COc2c(N3CCN(C)CC3)c(F)cc3c(=O)c(C(=O)O)cn1c23 [LEVO]
MIC50 ([1]; All organisms, N 1324): 0.25 µg/mL | MIC90 ([1]; All organisms, N 1324): 1 µg/mL | MIC50 ([1]; Gram-negative, N 438): 0.03 µg/mL | MIC90 ([1]; Gram-negative, N 438): 0.125 µg/mL | MIC Range ([1]; Gram-negative, N 438): ≦0.004-8 μg/mL | MIC50 ([1]; Gram-positive, N 886): 0.5 µg/mL | MIC90 ([1]; Gram-positive, N 886): 2 µg/mL | MIC50 (CDC coryneform group G): 0.06 µg/mL | MIC90 (CDC coryneform group G): 1 µg/mL | MIC50 (H. influenzae): 0.03 µg/mL | MIC90 (H. influenzae): 0.03 µg/mL | MIC Range (H. influenzae): ≦0.004-1 μg/mL | MIC50 (S. mitis group): 1 µg/mL | MIC90 (S. mitis group): 2 µg/mL | MIC50 (S. pneumoniae): 0.5 µg/mL | MIC90 (S. pneumoniae): 1 µg/mL | MIC Range (S. pneumoniae): 0.125 to 2 µg/mL | MIC50 (Streptococcus oralis): 1 µg/mL | MIC90 (Streptococcus oralis): 2 µg/mL | MIC Range (Streptococcus oralis): 0.125 to 2 µg/mL | MIC50 (S. aureus): 0.25 µg/mL | MIC90 (S. aureus): 8 µg/mL | MIC50 (S. epidermidis): 0.25 µg/mL | MIC90 (S. epidermidis): 8 µg/mL | MIC50 [2]: 0.5 µg/mL | MIC Range [2]: 0.06 to 1 µg/mL | MIC50 (Corynebacterium striatum): 0.06 µg/mL | MIC Range (Corynebacterium striatum): 0.03 to 4 µg/mL | MIC50 (Staphylococcus hominis): 0.125 µg/mL | MIC Range (Staphylococcus hominis): 0.125 to 4 µg/mL | MIC50 [3]: 0.25 µg/mL | MIC Range [3]: 0.25 to 2 µg/mL | MIC50 (Streptococcus mitis): 1 µg/mL | MIC90 (Streptococcus mitis): 1 µg/mL | MIC Range (Streptococcus mitis): 0.5 to 2 µg/mL | MIC50 (Streptococcus salivarius): 1 µg/mL | MIC Range (Streptococcus salivarius): 1 to 2 µg/mL

CC1COc2c(N3CCN(C)CC3)c(F)cc3c(=O)c(C(=O)O)cn1c23 (centres unmarked) [OFLOX]
MIC50 ([1]; All organisms, N 1324): 0.5 µg/mL | MIC90 ([1]; All organisms, N 1324): 2 µg/mL | MIC50 ([1]; Gram-negative, N 438): 0.03 µg/mL | MIC90 ([1]; Gram-negative, N 438): 0.25 µg/mL | MIC50 ([1]; Gram-positive, N 886): 1 µg/mL | MIC90 ([1]; Gram-positive, N 886): 4 µg/mL | MIC50 (CDC coryneform group G): 0.125 µg/mL | MIC90 (CDC coryneform group G): 2 µg/mL | MIC50 (H. influenzae): 0.03 µg/mL | MIC90 (H. influenzae): 0.06 µg/mL | MIC50 (S. mitis group): 2 µg/mL | MIC90 (S. mitis group): 4 µg/mL | MIC Range (S. mitis group): 0.25 µg/mL | MIC50 (S. pneumoniae): 1 µg/mL | MIC90 (S. pneumoniae): 2 µg/mL | MIC50 (Streptococcus oralis): 2 µg/mL | MIC90 (Streptococcus oralis): 4 µg/mL | MIC Range (Streptococcus oralis): 0.125 µg/mL | MIC50 (S. aureus): 0.5 µg/mL | MIC90 (S. aureus): >8 µg/mL | MIC50 (S. epidermidis): 0.5 µg/mL | MIC90 (S. epidermidis): >8 µg/mL | MIC Range (S. epidermidis): 0.25 µg/mL | MIC50 [2]: 1 µg/mL | MIC Range [2]: 0.125 to 2 µg/mL | MIC50 (Corynebacterium striatum): 0.125 µg/mL | MIC50 (Staphylococcus hominis): 0.25 µg/mL | MIC Range (Staphylococcus hominis): 0.25 µg/mL | MIC50 [3]: 1 µg/mL | MIC50 (Streptococcus mitis): 2 µg/mL | MIC90 (Streptococcus mitis): 2 µg/mL | MIC Range (Streptococcus mitis): 1 to 4 µg/mL | MIC50 (Streptococcus salivarius): 2 µg/mL | MIC Range (Streptococcus salivarius): 2 to 4 µg/mL
